Measurements from patent publication US11401278B2, “Macrocyclic indole derivatives” (The Broad Institute, Inc., priority 2017, dated 2022).
Structures can show the parent of a compound that is named as a salt.

Legend:
[1] = target: BCL-XL (Homo sapiens (Human), UniProt Q07817); assay: Protein-protein interaction assay BCL-XL/Bad BH3 peptide (BCL-XL assay, TR-FRET); assay type: binding; conditions: His-BCL-XL / Bad BH3 peptide, median
Protocol: Assay 2 Protein-Protein Interaction Assay: BCL-XL/Bad BH3 Peptide (BCL-XL Assay)
The dose-dependent inhibition by the compounds described in this invention of the interaction between BCL-XL and the BH3 domain of Bad (both human) was determined using a steady state binding competition assay with time-resolved fluorescence energy transfer (TR-FRET) readout. For that purpose BCL-XL (amino acids 1-212, C-terminal fused to a hexahistidine (6×His) tag (SEQ ID 3) and a synthetic Bad BH3-derived peptide of sequence Biotin-PEG2-PEG2-NLWAAQRYGRELRR-Nle-SDEFVDSFKK-amide (SEQ ID 4) served as protein receptor and tracer ligand respectively. The recombinant BCL-XL protein (expressed in E. coli) was purchased from BPS Bioscience (San Diego, Calif., USA). The Bad BH3-derived peptide can be obtained from e.g. Biosyntan (Berlin, Germany).
In the assay 11 different concentrations of each compound (0.1 nM, 0.33 nM, 1.1 nM, 3.8 nM, 13 nM, 44 nM, 0.15 μM, 0.51 μM, 1.7 μM, 5.9 μM and 20 μM) were typically measured as duplicates in the same microtiter plate. For that, 100-fold concentrated DMSO solutions were prepared by serial dilutions (1:3.4) of a 2 mM stock solution in a clear, 384-well microtiter plate (Greiner Bio-One, Frickenhausen, Germany). From there, 50 nl were transferred in a dark test plate (Greiner Bio-One, Frickenhausen, Germany). The assay was initiated by addition of 2 μl of a 2.5-fold concentrated His-BCL-XL solution (usually for a 1 nM end concentration in 5 μl reaction volume) in aqueous assay buffer [50 mM Tris/HCl pH 7, 100 mM sodium chloride (NaCl), 50 mM potassium fluoride (KF), 0.005% Tween-20, 2 mM DTT, 0.1% bovine gamma globulin (BGG)] to the compounds in the assay plate. This was followed by a 10-minute incubation step at 22° C. for pre-equilibration of the putative complex between His-BCL-XL and the compounds. After that, 3 μl of a 1.67-fold concentrated solution (in assay buffer) consisting of Bad BH3-derived peptide (1 nM end concentration) and TR-FRET detection reagents [1.67 nM anti-His-Eu cryptate and 1.67 nM streptavidin-XL665 (both from Cisbio Bioassays, Codolet, France)], were added.
The mixture was incubated in the dark for one hour at 22° C. and then overnight at 4° C. The formation of BCL-XL/Bad complexes was determined by measuring the resonance energy transfer of the anti-His- Eu-cryptate antibody to the streptavidin-XL665 present in the reaction. For that purpose, the fluorescence emission at 620 nm and 665 nm after excitation at 330-350 nm was measured in a TR-FRET measuring instrument, for instance a Rubystar or a Pherastar (both from BMG Lab Technologies, Offenburg, Germany) or a Viewlux (Perkin-Elmer). The ratio of the emission at 665 nm and at 622 nm was used as indicator of the amount of BCL-XL/Bad complexes present.
The resulting data (ratio) were normalized, taking 0% inhibition as the mean value of control measurements (usually 32 data points) where all reagents were included. In this case 50 nl DMSO were used instead of compounds. A 100% inhibition corresponded to the mean value of control measurements (usually 32 data points) where all reagents except BCL-XL were included. IC50 values were determined by regression analysis based on a 4 parameter equation (minimum, maximum, IC50, Hill; Y=Max+(Min−Max)/(1+(X/IC50)^HiII) using the Screener Software (Genedata).

[2] = tested on: SUDHL10; assay: Induction of caspase-3/7 activity (Assay 4), SUDHL10; assay type: cell-based; conditions: caspase-3/7 induction, median
How it was run: (§1)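 DLBCL cells were exposed to compounds for 3 hours at 37 °C, then caspase-3/7 activation was read with Caspase-Glo 3/7 reagent. After subtracting medium-only background, EC50s were derived with fixed C0=1 and the reference compound's maximal induction as plateau.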

[3] = tested on: SUDHL5; assay: Induction of cytotoxicity (Assay 6), SUDHL5; conditions: read-out: Cytotox SUDHL5 [M] (median) IC50, CellTiter-Glo, 5 hours, SUDHL5
[4] = tested on: SUDHL5; assay: Induction of caspase-3/7 activity (Assay 4), SUDHL5; assay type: cell-based; conditions: caspase-3/7 induction, median
How it was run: as §1

[5] = tested on: SUDHL5; assay: Antiproliferation assay (Assay 7), SUDHL5; assay type: cell-based; conditions: CellTiter-Glo, median, read-out: Antiproli SUDHL5 [M] (median) IC50
How it was run: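 CellTiter-Glo luminescence readout; 72 h compound exposure, 37° C, humidified. Day 0 reference plate read at plating for time-zero baseline.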

Chain of BCL-XL (Q07817 other isoform, or with tags, fused parts or gaps): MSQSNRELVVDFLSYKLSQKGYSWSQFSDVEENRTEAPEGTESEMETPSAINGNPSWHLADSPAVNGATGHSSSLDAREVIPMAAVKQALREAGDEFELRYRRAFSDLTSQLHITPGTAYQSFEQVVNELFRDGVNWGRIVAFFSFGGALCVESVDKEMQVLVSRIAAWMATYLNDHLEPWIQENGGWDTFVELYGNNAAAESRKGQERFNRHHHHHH

Structure (SMILES)	IC50 [1]	EC50 ([2]; 3 hours)	IC50 [3]	EC50 ([4]; 3 hours)	IC50 ([5]; 72 hours)	EC50 ([2]; Homo sapiens, SU-DHL10, 3 h)	IC50 ([3]; Homo sapiens, SU-DHL-5, 5 h)	EC50 ([4]; Homo sapiens, SU-DHL-5, 3 h)	IC50 ([5]; Homo sapiens, SU-DHL-5, 72 h)
Cc1c2c(nn1C)CN(C1CC1)S(=O)(=O)CCCn1c(C(=O)O)c(CCCOc3cccc4cc(F)ccc34)c3ccc(Cl)c-2c31 (single isomer, unassigned; enantiomer 1) [Example 42, (−)-4-chloro-14-cyclopropyl-7-{3-[(6-fluoro-1-naphthyl)oxy]propyl}-2,3-dimethyl-11,12,14,15-tetrahydro-2H,10H-pyrazolo[3′,4′:4,5][1,2,8]thiadiazacycloundecino[6,7,8-hi]indole-8-carboxylic acid 13,13-dioxide N-diethylamine salt (Enantiomer 1)]	18 µM	0.29 µM	3e-07 M	0.19 µM	2.7e-07 M	–	–	–	–
Cc1c2c(nn1C)CN(C)S(=O)(=O)CCCn1c(C(=O)O)c(CCCOc3cccc4cc(F)ccc34)c3ccc(F)c-2c31 (single isomer, unassigned; enantiomer 2) [Example 39, (+)-4-fluoro-7-{3-[(6-fluoronaphthalen-1-yl)oxy]propyl}-2,3,14-trimethyl-13,13-dioxo-10,11,12,13,14,15-hexahydro-2H-13lambda^6-pyrazolo[3′,4′:4,5][1,2,8]thiadiazacycloundecino-[6,7,8-hi]indole-8-carboxylic acid (Enantiomer 2)]	> 20 µM	0.73 µM	4.5e-07 M	0.35 µM	5.4e-07 M	–	–	–	–
CCc1c2c(nn1C)CN(CCN1CCCCC1)S(=O)(=O)CCCn1c(C(=O)O)c(CCCOc3cccc4ccccc34)c3cccc-2c31 (racemic) [Example 14, (rac)-12-Ethyl-11-methyl-1-(3-(naphthalen-1-yloxy)propyl)-8-(2-(piperidin-1-yl)ethyl)-4,5,6,8,9,11-hexahydropyrazolo[3′,4′:4,5][1,2,8]thiadiazacycloundecino[6,7,8-hi]indole-2-carboxylic acid 7,7-dioxide 2,2,2-trifluoroacetic acid salt]	> 20 µM	–	–	–	–	9.2 µM	5.2e-06 M	4.6 µM	3.3e-06 M
Cc1c2c(nn1C)C(CCN1CCOCC1)N(C)S(=O)(=O)CCCn1c(C(=O)O)c(CCCOc3cccc4cc(F)ccc34)c3ccc(Cl)c-2c31 (single isomer, unassigned; enantiomer 1) [Example 66, 4-chloro-7-{3-[(6-fluoronaphthalen-1-yl)oxy]propyl}-2,3,14-trimethyl-15-[2-(morpholin-4-yl)ethyl]-13,13-dioxo-10,11,12,13,14,15-hexahydro-2H-13lambda^6-pyrazolo[3′,4′:4,5][1,2,8]thiadiazacycloundecino[6,7,8-hi]indole-8-carboxylic acid (Enantiomer 1)]	> 20 µM	6 µM	3.3e-06 M	3.5 µM	4e-06 M	–	–	–	–
CCc1c2c(nn1C)CN(C)S(=O)(=O)CCCn1c(C(=O)O)c(CCCOc3cccc4cc(F)ccc34)c3ccc(F)c-2c31 (racemic) [Example 7, (rac)-12-Ethyl-13-fluoro-1-(3-((6-fluoronaphthalen-1-yl)oxy)propyl)-8,11-dimethyl-5,6,9,11-tetrahydro-4H,8H-pyrazolo[3′,4′:4,5][1]thia[2,8]diazacycloundecino[6,7,8-hi]indole-2-carboxylic acid 7,7-dioxide]	> 20 µM	–	–	–	–	0.74 µM	4.7e-07 M	0.51 µM	2.2e-07 M
CCc1c2c(nn1C)C(CCC1CCOCC1)N(C)S(=O)(=O)CCCn1c(C(=O)O)c(CCCOc3cccc4cc(F)ccc34)c3ccc(Cl)c-2c31 (racemic) [Example 60, (rac)-4-chloro-3-ethyl-7-{3-[(6-fluoro-1-naphthyl)oxy]propyl}-2,14-dimethyl-15-[2-(tetrahydro-2H-pyran-4-yl)ethyl]-11,12,14,15-tetrahydro-2H,10H-pyrazolo[3′,4′:4,5][1,2,8]thiadiazacycloundecino[6,7,8-hi]indole-8-carboxylic acid 13,13-dioxide (Racemate 1)]	> 20 µM	0.032 µM	2.8e-08 M	0.018 µM	1.8e-08 M	–	–	–	–
Cc1c2c(nn1C)C(N1CCOCC1)CCN(C)S(=O)(=O)CCCn1c(C(=O)O)c(CCCOc3cccc4cc(F)ccc34)c3ccc(Cl)c-2c31 (racemic) [Example 47, (rac)-15-chloro-1-(3-((6-fluoronaphthalen-1-yl)oxy)propyl)-8,13,14-trimethyl-11-(rac)-morpholino-5,6,9,10,11,13-hexahydro-4H,8H-pyrazolo[3′,4′:6,7][1]thia[2,10]diazacyclotridecino[8,9,10-hi]indole-2-carboxylic acid 7,7-dioxide (Mixture of Stereoisomers)]	> 20 µM	–	–	–	–	0.32 µM	3.6e-07 M	0.22 µM	6.3e-07 M
CCc1c2c(nn1C)CN(C)S(=O)(=O)CCCn1c(C(=O)O)c(CCCOc3cccc4c3CCC4)c3ccc(Cl)c-2c31 [Example 21, (rac)-13-Chloro-1-(3-((2,3-dihydro-1H-inden-4-yl)oxy)propyl)-12-ethyl-8,11-dimethyl-5,6,9,11-tetrahydro-4H,8H-pyrazolo[3′,4′:4,5][1]thia[2,8]diazacycloundecino[6,7,8-hi]indole-2-carboxylic acid 7,7-dioxide]	> 20 µM	–	–	–	–	1.4 µM	1e-06 M	0.65 µM	5.3e-07 M
CCc1c2c(nn1C)CN(C)S(=O)(=O)CCCn1c(C(=O)O)c(CCCOc3cccc4ccccc34)c3ccc(F)c-2c31 (racemic) [Example 31, (rac)-12-Ethyl-13-fluoro-8,11-dimethyl-1-(3-(naphthalen-1-yloxy)propyl)-5,6,9,11-tetrahydro-4H,8H-pyrazolo[3′,4′:4,5][1]thia[2,8]diazacycloundecino[6,7,8-hi]indole-2-carboxylic acid 7,7-dioxide]	> 20 µM	–	–	–	–	1.9 µM	9.3e-07 M	0.8 µM	5.3e-07 M
CCc1c2c(nn1C)CN(C)S(=O)(=O)CCCn1c(C(=O)O)c(CCCOc3ccc(F)c4ccccc34)c3ccc(Cl)c-2c31 [Example 24, (rac)-13-Chloro-12-ethyl-1-(34(4-fluoronaphthalen-1-yl)oxy)propyl)-8,11-dimethyl-4,5,6,8,9,11-hexahydropyrazolo[3′,4′:4,5][1,2,8]thiadiazacycloundecino[6,7,8-hi]indole-2-carboxylic acid 7,7-dioxide]	> 20 µM	–	–	–	–	2.3 µM	1.3e-06 M	1.1 µM	1.2e-06 M
